Two compounds from patent publication US8143402B2, “Polymorphic forms of a macrocyclic inhibitor of HCV” (Tibotec Pharmaceuticals Ltd., priority 2007, dated 2012) can be followed below.

Common to all, as to type: physicochemical
Data set [1] is described as follows: Intrinsic dissolution. To be noted: compared with Form I.
The nature of data set [2]: Stability of the polymorphic forms. Conditions: compared among the polymorphic forms.
Data set [3] can be described thus: Solubility of Form I and Form II in different solvents (excess shaken 24 hours at 20° C., filtration, UV spectrometry). Conditions: for solubility thermodynamic at 24 h: thermodynamic from solid, read-out: Solubility in g/100 mL of solution. How it is done:
An excess of product (Form I or Form II, where appropriate) was shaken with the relevant solvent during 24 hours at 20° C. After filtration, the concentration of the product in solution was determined with UV spectrometry.

Data set [4] in a line: Hygroscopicity of the polymorphic forms. Conditions: compared among the polymorphic forms.
Where [5] appears, read: 1-methoxy-2-propanol, 24 hours at 20° C.
[6] abbreviates: 2-propanol/dichloromethane (97/3) (v/v), 24 hours at 20° C.
Where [7] appears, read: 2-propanone, 24 hours at 20° C.
The mark [8] stands for this setting: 4-methyl-2-pentanone, 24 hours at 20° C.
The mark [9] stands for this setting: acetonitrile, 24 hours at 20° C.
[10] abbreviates: ethanol/water (95/5) (v/v), 24 hours at 20° C.

Structures are written as SMILES. Like-named read-outs stand apart in the source and are kept apart here.

As to `COc1ccc2c(O[C@@H]3C[C@H]4C(=O)N[C@]5(C(=O)NS(=O)(=O)C6CC6)C[C@H]5/C=C\CCCCN(C)C(=O)[C@@H]4C3)cc(-c3nc(C(C)C)cs3)nc2c1C` [Form II], the Intrinsic dissolution entry in data set [1] is recorded as “greater than that of Form I”. Further, in data set [2], the “Stability of the polymorph form” value is “less stable but nevertheless sufficiently stable”. For the same compound, the “Solubility in g/100 mL of solution” value in data set [3] (1-butanol, 24 hours at 20° C.) stood at 0.31 g/100 mL; in data set [3] (setting [5]) it was 1.6 g/100 mL; in data set [3] (2-butanone, 24 hours at 20° C.) it was 2.5 g/100 mL; in data set [3] (setting [6]), 0.19 g/100 mL; in data set [3] (2-propanol, 24 hours at 20° C.) it was 0.11 g/100 mL; in data set [3] (setting [7]), 1.2 g/100 mL. Further, the “Solubility in g/100 mL of solution” value was determined as 0.81 g/100 mL in data set [3] (setting [8]); 0.20 g/100 mL in data set [3] (setting [9]); 0.27 g/100 mL in data set [3] (setting [10]); 0.17 g/100 mL in data set [3] (ethanol, 24 hours at 20° C.); 0.29 g/100 mL in data set [3] (methanol, 24 hours at 20° C.); 0.43 g/100 mL in data set [3] (toluene, 24 hours at 20° C.).
Turning to `COc1ccc2c(O[C@@H]3C[C@H]4C(=O)N[C@]5(C(=O)NS(=O)(=O)C6CC6)C[C@H]5/C=C\CCCCN(C)C(=O)[C@@H]4C3)cc(-c3nc(C(C)C)cs3)nc2c1C` [Form I], the “Stability of the polymorph form” value in data set [2] is “most stable form”. Moreover, the “Solubility in g/100 mL of solution” value is given as 0.82 g/100 mL in data set [3] (setting [5]); 0.87 g/100 mL in data set [3] (2-butanone, 24 hours at 20° C.); 0.045 g/100 mL in data set [3] (setting [6]); 0.027 g/100 mL in data set [3] (2-propanol, 24 hours at 20° C.); 0.66 g/100 mL in data set [3] (setting [7]); 0.28 g/100 mL in data set [3] (setting [8]). Also, the “Solubility in g/100 mL of solution” value is given as above 20 g/100 mL in data set [3] (N,N-dimethylacetamide*, 125 mg of Form I was dissolved in 0.5 mL of N,N-dimethylacetamide); 16 g/100 mL in data set [3] (N,N-dimethylacetamide, 24 hours at 20° C.); 1.7 g/100 mL in data set [3] (acetic acid, 24 hours at 20° C.); 0.075 g/100 mL in data set [3] (setting [9]); 8.5 g/100 mL in data set [3] (dichloromethane, 24 hours at 20° C.); 0.078 g/100 mL in data set [3] (setting [10]). Moreover, the “Solubility in g/100 mL of solution” value in data set [3] (ethanol, 24 hours at 20° C.) worked out at 0.050 g/100 mL; in data set [3] (ethyl acetate, 24 hours at 20° C.) it was 0.21 g/100 mL; in data set [3] (methanol/dichloromethane (50/50) (v/v), 24 hours at 20° C.), 8.3 g/100 mL; in data set [3] (methanol, 24 hours at 20° C.), 0.056 g/100 mL; in data set [3] (tetrahydrofuran, 24 hours at 20° C.) it was 7.0 g/100 mL; in data set [3] (toluene, 24 hours at 20° C.) it was 0.086 g/100 mL. The solubility thermodynamic at 24 h in data set [3] (aqueous with cosolvent or surfactant or cyclodextrin, acetic acid/water (10/90) (v/v) (pH = 2.2), 24 hours at 20° C.) was below 10 µg/mL; in data set [3] (water (pH = 5.0), 24 hours at 20° C.), below 10 µg/mL. The Hygroscopicity result in data set [4] is on record as “least hygroscopic form”.
